# Results taken from ChEMBL document CHEMBL1201862, “PubChem BioAssay data set” (2004).
#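 The compound was tested at five concentrations on cells cultured in 96-well plates, with a 48-hour exposure period. Here, GI50 denotes the concentration required for 50% inhibition of growth.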 Activity calls are given as the source filed them. No stated cut-off is given here; in the data, active = GI50 up to about 1.1 µM and inactive = higher.
# Key:
# Assay in all cases: inhibition of tumour cell growth, NCI panel, 48 h
# A549 = test system: A549
# CAKI-1 = test system: CAKI-1
# DU-145 = test system: DU-145
# HT-29 = test system: HT-29
# Hs-578T = test system: Hs-578T
# LOX IMVI = test system: LOX IMVI
# MOLT-4 = test system: MOLT-4
# NCI-H23 = test system: NCI-H23
# NCI-H460 = test system: NCI-H460
# NCI-H522 = test system: NCI-H522
# OVCAR-5 = test system: OVCAR-5
# SF-268 = test system: SF-268
# SF-295 = test system: SF-295
# SF-539 = test system: SF-539
# SK-MEL-5 = test system: SK-MEL-5
# SNB-19 = test system: SNB-19
# SR = test system: SR
# SW-620 = test system: SW-620
# TK-10 = test system: TK-10
# UACC-62 = test system: UACC-62
SMILES,GI50 (A549),GI50 (CAKI-1),GI50 (DU-145),GI50 (HT-29),GI50 (Hs-578T),GI50 (LOX IMVI),GI50 (MOLT-4),GI50 (NCI-H23),GI50 (NCI-H460),GI50 (NCI-H522),GI50 (OVCAR-5),GI50 (SF-268),GI50 (SF-295),GI50 (SF-539),GI50 (SK-MEL-5),GI50 (SNB-19),GI50 (SR),GI50 (SW-620),GI50 (TK-10),GI50 (UACC-62)
COc1ccc(C(=C(I)c2ccccc2)c2ccc(OC)cc2)cc1,> 100 µM (inactive),> 100 µM (inactive),> 100 µM (inactive),7.23 µM (inactive),> 100 µM (inactive),> 100 µM (inactive),> 100 µM (inactive),> 100 µM (inactive),> 100 µM (inactive),> 100 µM (inactive),> 100 µM (inactive),> 100 µM (inactive),> 100 µM (inactive),> 100 µM (inactive),49.8 µM (inactive),> 100 µM (inactive),> 100 µM (inactive),> 100 µM (inactive),> 100 µM (inactive),> 100 µM (inactive)
Cc1nc2ccc(Cl)cc2c2c1CCN2c1ccc(F)cc1,43.5 µM (inactive),18.4 µM (inactive),58.3 µM (inactive),4.94 µM (inactive),26.3 µM (inactive),8.73 µM (inactive),4.72 µM (inactive),20.2 µM (inactive),7.03 µM (inactive),44.2 µM (inactive),84.9 µM (inactive),58.3 µM (inactive),82.8 µM (inactive),22.3 µM (inactive),7.87 µM (inactive),33.1 µM (inactive),13.1 µM (inactive),27.1 µM (inactive),18.1 µM (inactive),15.2 µM (inactive)
Cc1cc(-c2nc3cc(F)ccc3s2)ccc1N,6.17 µM (inactive),23.6 µM (inactive),56 µM (inactive),29 µM (inactive),26.5 µM (inactive),> 56.9 µM (inactive),34.2 µM (inactive),2.79 µM (inactive),< 0.017 µM (active),16.9 µM (inactive),0.794 µM (active),20.3 µM (inactive),14.8 µM (inactive),20.4 µM (inactive),42.4 µM (inactive),35.8 µM (inactive),< 0.0106 µM (active),> 100 µM (inactive),< 0.01 µM (active),39.7 µM (inactive)
COC(=O)/C=C1/OC(c2ccc(OC)cc2)=C(Cl)C1=O,23.7 µM (inactive),13.5 µM (inactive),18.2 µM (inactive),15.4 µM (inactive),25.8 µM (inactive),7.94 µM (inactive),2.96 µM (inactive),17.6 µM (inactive),18.4 µM (inactive),14.6 µM (inactive),17.1 µM (inactive),16.6 µM (inactive),19.9 µM (inactive),19.1 µM (inactive),14 µM (inactive),23 µM (inactive),1.61 µM (inactive),12.4 µM (inactive),24.3 µM (inactive),17.4 µM (inactive)
O=C(C#Cc1ccccc1)N1CCCCC1,76.9 µM (inactive),83.9 µM (inactive),55.8 µM (inactive),29 µM (inactive),> 100 µM (inactive),48.9 µM (inactive),> 100 µM (inactive),45.3 µM (inactive),44.6 µM (inactive),> 100 µM (inactive),> 100 µM (inactive),90.2 µM (inactive),> 100 µM (inactive),> 100 µM (inactive),56.4 µM (inactive),> 100 µM (inactive),80.4 µM (inactive),97.9 µM (inactive),> 100 µM (inactive),> 100 µM (inactive)
CC(NC(=O)N(C)C)NC(=O)N(C)C,> 10 µM (inactive),> 10 µM (inactive),> 10 µM (inactive),> 10 µM (inactive),> 10 µM (inactive),> 10 µM (inactive),> 10 µM (inactive),> 10 µM (inactive),> 10 µM (inactive),> 10 µM (inactive),,> 10 µM (inactive),> 10 µM (inactive),> 10 µM (inactive),> 10 µM (inactive),> 10 µM (inactive),> 10 µM (inactive),> 10 µM (inactive),> 10 µM (inactive),> 10 µM (inactive)
O=c1oc2c/c(=C\c3ccccc3)c(=O)c3cccc1c3-2,> 100 µM (inactive),24.1 µM (inactive),51.1 µM (inactive),55.6 µM (inactive),14.8 µM (inactive),19.7 µM (inactive),,36.7 µM (inactive),74.5 µM (inactive),22.8 µM (inactive),61.7 µM (inactive),24.1 µM (inactive),> 100 µM (inactive),31.5 µM (inactive),> 10 µM (inactive),31.8 µM (inactive),28.8 µM (inactive),25.1 µM (inactive),> 100 µM (inactive),24.5 µM (inactive)
